This note sets out measurements from patent US20120015988A1, “Sulfone Compounds Which Modulate The CB2 Receptor” (BOEHRINGER INGELHEIM INTERNATIONAL GMBH, priority 2008, published 2012).

The pEC50 is −log10 of the EC50, conventionally taken in molar units.

The structures appear in SMILES notation. pEC50: −log10 of the molar value.

In the test the target is T1, human CB2R (Homo sapiens, UniProt P34972).
T1 construct: host or cells: CHO cells
T1 sequence (P34972 whole entry): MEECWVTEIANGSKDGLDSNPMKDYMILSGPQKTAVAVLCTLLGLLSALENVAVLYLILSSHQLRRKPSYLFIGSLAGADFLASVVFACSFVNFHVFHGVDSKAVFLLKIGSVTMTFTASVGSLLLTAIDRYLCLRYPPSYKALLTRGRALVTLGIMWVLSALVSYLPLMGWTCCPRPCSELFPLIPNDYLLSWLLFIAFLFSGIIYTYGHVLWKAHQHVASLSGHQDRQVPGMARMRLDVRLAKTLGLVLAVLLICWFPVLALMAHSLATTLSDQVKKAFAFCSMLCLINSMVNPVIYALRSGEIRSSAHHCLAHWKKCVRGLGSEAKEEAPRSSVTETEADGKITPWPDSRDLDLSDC
The experiment in a line: CB2R mediated modulation of cAMP synthesis. In kind it is cell-based. The note with it: CHO cells expressing human CB2R; concentration at which 50% of the forskolin-stimulated cAMP synthesis was inhibited; 100% defined by 1 uM CP55940; read-out: CB2 EC50. The method, then:
B. CB2R Mediated Modulation of Camp Synthesis:
Compounds of the invention were evaluated for their CB2 agonist or inverse agonistic activity in accordance with the following experimental method.
CHO cells expressing human CB2R (Euroscreen) were plated at a density of 5000 cells per well in 384 well plates and incubated overnight at 37° C. After removing the media, the cells were treated with test compounds diluted in stimulation buffer containing 1 mM IBMX, 0.25% BSA and 10 uM Forskolin. The assay was incubated for 30 minutes at 37° C. Cells were lysed and the cAMP concentration was measured using DiscoverX-XS cAMP kit, following the manufacturer's protocol. In this setting, agonists will decrease forskolin induced production of cAMP while inverse agonists will further increase forskolin induced production of cAMP. EC50 of agonists were calculated as follows. The maximal amount of cAMP produced by forskolin compared to the level of cAMP inhibited by 1 uM CP55940 is defined as 100%. The EC50 value of each test compound was determined as the concentration at which 50% of the forskolin-stimulated cAMP synthesis was inhibited. Data was analyzed using a four-parameter logistic model. (Model 205 of XLfit 4.0).
Consider `CC(C)(C)c1cc(-c2noc(C(C)(C)S(=O)(=O)c3ccc(C(F)(F)F)cc3)n2)on1` [Example 35, 3-(3-tert-butyl-isoxazol-5-yl)-5-[1-methyl-1-(4-trifluoromethyl-benzenesulfonyl)-ethyl]-[1,2,4]oxadiazole], for which the pEC50 is 8.23.

Consider `Cn1nc(C(C)(C)C)cc1-c1nnc(C(C)(C)S(=O)(=O)C2CCOCC2)s1` [Example 42, 2-(5-tert-butyl-2-methyl-2H-pyrazol-3-yl)-5-[1-methyl-1-(tetrahydro-pyran-4-sulfonyl)-ethyl]-[1,3,4]thiadiazole], for which the pEC50 was 6.93.

As to `Cn1nc(C(C)(C)C)cc1-c1nnc(C(C)(C)S(=O)(=O)CC2CCC(O)CC2)[nH]1` (stereo not shown) [Example 51, 4-{2-[5-(5-tert-butyl-2-methyl-2H-pyrazol-3-yl)-4H-[1,2,4]triazol-3-yl]-propane-2-sulfonylmethyl}-cyclohexanol], the pEC50 is 6.34.

Consider `CC(C)(CO)c1cc(-c2nnc(C(C)(C)S(=O)(=O)c3ccc(F)cc3)s2)on1` [Example 43, 2-(5-{5-[1-(4-fluoro-benzenesulfonyl)-1-methyl-ethyl]-[1,3,4]thiadiazol-2-yl}-isoxazol-3-yl)-2-methyl-propan-1-ol], for which the pEC50 is 6.76.

With `Cc1ccc(S(=O)(=O)C(C)(C)c2nc(-c3cc(C(C)(C)C)nn3C)co2)cc1` [Example 4, 4-(5-tert-butyl-2-methyl-2H-pyrazol-3-yl)-2-[1-methyl-1-(toluene-4-sulfonyl)-ethyl]-oxazole], the pEC50 is 7.92.

As to `CC(C)(C)c1cc(-c2nnc(C(C)(C)S(=O)(=O)C3CCOCC3)o2)on1` [Example 29, 2-(3-tert-butyl-isoxazol-5-yl)-5-[1-methyl-1-(tetrahydro-pyran-4-sulfonyl)-ethyl]-[1,3,4]oxadiazole], the pEC50 was 7.57.

In the case of `CC(C)(C)c1cc(-c2nc(C(C)(C)S(=O)(=O)CC3CCOCC3)no2)on1` [Example 38, 5-(3-tert-butyl-isoxazol-5-yl)-3-[1-methyl-1-(tetrahydro-pyran-4-ylmethanesulfonyl)-ethyl]-[1,2,4]oxadiazole], the pEC50 was 6.68.

Take `Cn1nc(C(C)(C)C)cc1-c1nnc(C2(S(=O)(=O)c3ccc(Cl)cc3)CC2)o1` [Example 32, 2-(5-tert-butyl-2-methyl-2H-pyrazol-3-yl)-5-[1-(4-chloro-benzenesulfonyl)-cyclopropyl]-[1,3,4]oxadiazole]: the pEC50 was 8.43.

As to `CC(C)(C)c1cc(-c2nnc(C(C)(C)S(=O)(=O)CC3CCOCC3)[nH]2)on1` [Example 14, 3-(3-tert-butyl-isoxazol-5-yl)-5-[1-methyl-1-(tetrahydro-pyran-4-ylmethanesulfonyl)-ethyl]-4H-[1,2,4]triazole], the pEC50 is 6.80.

Consider `Cn1nc(C(C)(C)C)cc1-c1coc(C(C)(C)S(=O)(=O)c2ccc(Cl)cc2F)n1` [Example 3, 4-(5-tert-butyl-2-methyl-2H-pyrazol-3-yl)-2-[1-(4-chloro-2-fluoro-benzenesulfonyl)-1-methyl-ethyl]-oxazole], for which the pEC50 was 8.41.

On to `CC(C)(C)c1cc(-c2nnc(C(C)(C)S(=O)(=O)c3ccc(F)cc3)[nH]2)on1` [Example 45, 3-(3-tert-butyl-isoxazol-5-yl)-5-[1-(4-fluoro-benzenesulfonyl)-1-methyl-ethyl]-4H-[1,2,4]triazole], for which the pEC50 was 6.59.

Consider `Cn1nc(C(C)(C)C)cc1-c1nnc(C(C)(C)S(=O)(=O)c2ccc(F)cc2)[nH]1` [Example 44, 3-(5-tert-butyl-2-methyl-2H-pyrazol-3-yl)-5-[1-(4-fluoro-benzenesulfonyl)-1-methyl-ethyl]-4H-[1,2,4]triazole], for which the pEC50 is 8.70.

In the case of `Cn1nc(C(C)(C)C)cc1-c1cnc(C(C)(C)S(=O)(=O)c2ccc(F)cc2)o1` [Example 9, 5-(5-tert-butyl-2-methyl-2H-pyrazol-3-yl)-2-[1-(4-fluoro-benzenesulfonyl)-1-methyl-ethyl]-oxazole], the pEC50 is 8.24.

Take `CC(C)(C)c1cc(-c2nnc(C(C)(C)S(=O)(=O)c3ccc(F)cc3)o2)no1` [Example 27, 2-(5-tert-butyl-isoxazol-3-yl)-5-[1-(4-fluoro-benzenesulfonyl)-1-methyl-ethyl]-[1,3,4]oxadiazole]: the negative logarithm of the EC50 (pEC50) is 7.46.

With `CC(C)(C)c1cc(-c2nnc(C(C)(C)S(=O)(=O)c3ccc(F)cc3)s2)on1` [Example 39, 2-(3-tert-butyl-isoxazol-5-yl)-5-[1-(4-fluoro-benzenesulfonyl)-1-methyl-ethyl]-[1,3,4]thiadiazole], the pEC50 is 8.17.

For `Cn1nc(C(C)(C)C)cc1-c1coc(C(C)(C)S(=O)(=O)c2ccc(Cl)cc2)n1` [Example 1, 4-(5-tert-butyl-2-methyl-2H-pyrazol-3-yl)-2-[1-(4-chloro-benzenesulfonyl)-1-methyl-ethyl]-oxazole], the pEC50 is 9.04.

With `CC(C)(C)c1cc(-c2nnc(C(C)(C)S(=O)(=O)c3ccc(Cl)cc3)o2)no1` [Example 25, 2-(5-tert-butyl-isoxazol-3-yl)-5-[1-(4-chloro-benzenesulfonyl)-1-methyl-ethyl]-[1,3,4]oxadiazole], the pEC50 was 8.16.

In the case of `Cn1nc(C(C)(C)C)cc1-c1nc(C(C)(C)S(=O)(=O)c2ccc(Cl)cc2)no1` [Example 18, 5-(5-tert-butyl-2-methyl-2H-pyrazol-3-yl)-3-[1-(4-chloro-benzenesulfonyl)-1-methyl-ethyl]-[1,2,4]oxadiazole], the pEC50 was 8.57.

Turning to `CC(C)(C)c1cc(-c2nc(C(C)(C)S(=O)(=O)c3ccc(F)cc3)no2)on1` [Example 37, 5-(3-tert-butyl-isoxazol-5-yl)-3-[1-(4-fluoro-benzenesulfonyl)-1-methyl-ethyl]-[1,2,4]oxadiazole], the pEC50 was 9.00.

For `Cn1nc(C(C)(C)C)cc1-c1nc(C(C)(C)S(=O)(=O)CC2CCOCC2)no1` [Example 19, 5-(5-tert-butyl-2-methyl-2H-pyrazol-3-yl)-3-[1-methyl-1-(tetrahydro-pyran-4-ylmethanesulfonyl)-ethyl]-[1,2,4]oxadiazole], the pEC50 is 8.04.

`Cn1nc(C(C)(C)C)cc1-c1nnc(C(C)(C)S(=O)(=O)c2ccc(Cl)cc2)o1` [Example 26, 2-(5-tert-butyl-2-methyl-2H-pyrazol-3-yl)-5-[1-(4-chloro-benzenesulfonyl)-1-methyl-ethyl]-[1,3,4]oxadiazole]: the pEC50 was 8.05.

`Cn1nc(C(C)(C)C)cc1-c1nnc(C(C)(C)S(=O)(=O)Cc2ccc(F)cc2)[nH]1` [Example 48, 3-(5-tert-butyl-2-methyl-2H-pyrazol-3-yl)-5-[1-(4-fluoro-phenylmethanesulfonyl)-1-methyl-ethyl]-4H-[1,2,4]triazole]: the pEC50 was 6.89.

Regarding `CC(C)(C)c1cc(-c2nnc(C(C)(C)S(=O)(=O)c3ccc(Cl)cc3)o2)on1` [Example 22, 2-(3-tert-butyl-isoxazol-5-yl)-5-[1-(4-chloro-benzenesulfonyl)-1-methyl-ethyl]-[1,3,4]oxadiazole], the pEC50 is 8.28.

`Cn1nc(C(C)(C)C)cc1-c1nnc(C(C)(C)S(=O)(=O)c2ccc(F)cc2)o1` [Example 28, 2-(5-tert-butyl-2-methyl-2H-pyrazol-3-yl)-5-[1-(4-fluoro-benzenesulfonyl)-1-methyl-ethyl]-[1,3,4]oxadiazole]: the pEC50 is 7.80.

Turning to `Cn1nc(C(C)(C)C)cc1-c1nnc(C(C)(C)S(=O)(=O)CC2CCOCC2)[nH]1` [Example 46, 3-(5-tert-butyl-2-methyl-2H-pyrazol-3-yl)-5-[1-methyl-1-(tetrahydro-pyran-4-ylmethanesulfonyl)-ethyl]-4H-[1,2,4]triazole], the pEC50 is 6.38.

Turning to `CC(C)(C)c1cc(-c2nnc(C(C)(C)S(=O)(=O)CC3CCOCC3)o2)on1` [Example 24, 2-(3-tert-butyl-isoxazol-5-yl)-5-[1-methyl-1-(tetrahydro-pyran-4-ylmethanesulfonyl)-ethyl]-[1,3,4]oxadiazole], the pEC50 is 7.32.

Take `Cn1nc(C(C)(C)C)cc1-c1nnc(C(C)(C)S(=O)(=O)c2ccc(F)cc2)s1` [Example 41, 2-(5-tert-butyl-2-methyl-2H-pyrazol-3-yl)-5-[1-(4-fluoro-benzenesulfonyl)-1-methyl-ethyl]-[1,3,4]thiadiazole]: the pEC50 is 8.60.

For the compound `Cn1nc(C(C)(C)C)cc1-c1coc(C(C)(C)S(=O)(=O)C2CCCCC2)n1` [Example 6, 4-(5-tert-butyl-2-methyl-2H-pyrazol-3-yl)-2-(1-cyclohexanesulfonyl-1-methyl-ethyl)-oxazole], the pEC50 is 6.43.

As to `Cn1nc(C(C)(C)C)cc1-c1nnc(C(C)(C)S(=O)(=O)c2ccc(Cl)cc2)[nH]1` [Example 12, 3-(5-tert-butyl-2-methyl-2H-pyrazol-3-yl)-5-[1-(4-chloro-benzenesulfonyl)-1-methyl-ethyl]-4H-[1,2,4]triazole], the pEC50 is 7.92.

Turning to `CC(C)(c1nc(C2CCCCC2)no1)S(=O)(=O)c1ccc(C(F)(F)F)cc1` [Example 16, 3-cyclohexyl-5-[1-methyl-1-(4-trifluoromethyl-benzenesulfonyl)-ethyl]-[1,2,4]oxadiazole], the pEC50 was 7.92.

For the compound `Cn1nc(C(C)(C)C)cc1-c1coc(C(C)(C)S(=O)(=O)CC2CCOCC2)n1` [Example 5, 4-(5-tert-butyl-2-methyl-2H-pyrazol-3-yl)-2-[1-methyl-1-(tetrahydro-pyran-4-ylmethanesulfonyl)-ethyl]-oxazole], the pEC50 is 6.84.
